Assay results as given in PubChem BioAssay (NCI).
“And” between values parts separate entries of the source, which are not always exact repeats. Equal entries are not always repeated.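 Cells were grown in 96-well plates and exposed to each compound for 48 hours at five concentrations; endpoints were interpolated linearly between bracketing concentrations, or set to the highest concentration if not reached. GI50 marks 50% less growth. TGI: total growth inhibition.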

How the values were obtained:
Experiment in all cases: DTP human tumour cell line panel, 48 h
MOLT-4 leukemia = test system: MOLT-4 leukemia
SF-539 CNS = test system: SF-539 CNS
HS 578T breast = test system: HS 578T breast
NCI-H226 lung = test system: NCI-H226 lung
SK-MEL-5 melanoma = test system: SK-MEL-5 melanoma
MALME-3M melanoma = test system: MALME-3M melanoma
SR leukemia = test system: SR leukemia
HCT-15 colon = test system: HCT-15 colon
A498 renal = test system: A498 renal
CAKI-1 renal = test system: CAKI-1 renal

Structure (SMILES)	GI50 (MOLT-4 leukemia)	TGI (MOLT-4 leukemia)	GI50 (SF-539 CNS)	TGI (SF-539 CNS)	GI50 (HS 578T breast)	TGI (HS 578T breast)	GI50 (NCI-H226 lung)	TGI (NCI-H226 lung)	GI50 (SK-MEL-5 melanoma)	TGI (SK-MEL-5 melanoma)	GI50 (MALME-3M melanoma)	TGI (MALME-3M melanoma)	GI50 (SR leukemia)	TGI (SR leukemia)	GI50 (HCT-15 colon)	TGI (HCT-15 colon)	GI50 (A498 renal)	TGI (A498 renal)	GI50 (CAKI-1 renal)	TGI (CAKI-1 renal)
C[C@H]1[C@H](C)CC[C@]2(C(=O)O)CC[C@]3(C)C(=CC[C@@H]4[C@@]5(C)CC[C@H](OC(=O)/C=C/c6ccc(O)cc6)C(C)(C)[C@@H]5CC[C@]43C)[C@H]12	4.42 µM	49.7 µM	3.8 µM	10.2 µM	2810 nM	8.8 µM	15.1 µM	29.2 µM	4910 nM	14.9 µM	1900 nM	20 µM	3770 nM	24.2 µM	10.9 µM	33 µM	21.1 µM	37.9 µM	3130 nM	16.3 µM
COc1cc(Cn2ccc3c2-c2oncc2CC3)cc(OC)c1	4.09 µM	> 100 µM	2.8 µM	21.4 µM	2380 nM	12.2 µM	15.5 µM	> 100 µM	2750 nM	10.4 µM	4250 nM	37.9 µM	851 nM	31.1 µM	3.03 µM	> 100 µM	1.16 µM	6.99 µM	2790 nM	39.5 µM
CCN(CC)CCCOc1cc(O)c2c(=O)cc(-c3ccccc3)oc2c1	3.29 µM	8.71 µM	6.65 µM	19.5 µM	10200 nM	26 µM	13.6 µM	29.7 µM	3160 nM	11.8 µM	9810 nM	25 µM	3440 nM	9.39 µM	3.94 µM	14.6 µM	10.2 µM	22.4 µM	13900 nM	38.8 µM
COc1cc2nc(N3CCCC3)nc(Nc3ccccc3)c2cc1OC	1.54 µM	4.33 µM	0.56 µM	1.84 µM	1970 nM	4.45 µM	1.97 µM	4.12 µM	1710 nM	3.12 µM	1880 nM	3.37 µM	234 nM	1.26 µM	0.68 µM	2.04 µM	1.02 µM	2.28 µM	1450 nM	2.8 µM
CN(C)C(=O)c1cc2cnc(Nc3ccc(-c4csc5c(=O)cc(N6CCNCC6)oc45)cc3)nc2n1C1CCCC1	0.368 µM	2.11 µM	1.15 µM	2.43 µM	943 nM	4.39 µM	1.61 µM	15.3 µM	1180 nM	2.51 µM	1380 nM	2.94 µM	231 nM	2.44 µM	1.84 µM	5.79 µM	1.24 µM	3.01 µM	819 nM	12.9 µM
O=C1c2ccccc2-c2n[nH]c3cccc1c23	7.85 µM	> 100 µM	25.1 µM	> 100 µM	21000 nM	> 100 µM	10.3 µM	> 100 µM and 78.4 µM	25600 nM	37.5 µM and > 94.6 µM	24100 nM	58.9 µM and > 86.8 µM	9010 nM	> 100 µM	6.66 µM	> 100 µM	4.95 µM	35.4 µM and 52.4 µM	2980 nM	18.2 µM and 22.6 µM
Cc1cc2c3ccccc3ccc2[n+]2ccccc12	4.64 µM	28.2 µM	3.47 µM	17 µM	2600 nM	17.2 µM	3.14 µM	23.7 µM	1630 nM	3.78 µM	657 nM	3.45 µM	2250 nM	12.9 µM	37.9 µM	> 100 µM	5.43 µM	> 100 µM	> 28000 nM	> 100 µM
CC1(O)CC2(O)C=CC3=C(C(=O)c4cccc(O)c4C3=O)C2(O)C(=O)C1O (stereo not given)		2.8 µM		10 µM		10.7 µM		17.6 µM		7.58 µM		0.966 µM		18.1 µM		2.98 µM		14.9 µM		2.24 µM
CCN(C(=O)CCl)C(C)(C)C(SSSC(c1ccc(Cl)cc1)C(C)(C)N(CC)C(=O)CCl)c1ccc(Cl)cc1 (stereo not given)	4.46 µM	13.9 µM	3.14 µM	10.9 µM	3360 nM	18.8 µM	15 µM	33.4 µM	6920 nM	20.2 µM	2210 nM	3.97 µM	2320 nM	5.15 µM	2.84 µM	12.8 µM	1.9 µM	7.42 µM	4090 nM	15.4 µM
